Laboratory results: US20180200257A1, “METHODS FOR THE TREATMENT OF INFLAMMATORY DISORDERS” (Galapagos NV, priority 2015, published 2018)

Test system: Subjects With Active Crohn's Disease With Evidence of Mucosal Ulceration
Assay: Study 3 - Histopathology score
Assay type: in vivo, human
Details: 200 mg, LOCF
Excerpt: Double-Blind, Randomized, Placebo-Controlled, Multi-Centre Study to Investigate the Efficacy and Safety of Compound 1 in Subjects With Active Crohn's Disease With Evidence of Mucosal Ulceration.
This is a double-blind, randomized, placebo-controlled, multi-centre Phase 2 study to investigate the efficacy and safety of Compound 1 administered once daily for the treatment of active CD with evidence of mucosal ulceration. The pharmacokinetics (including a PK substudy) and pharmacodynamics of Compound 1 and metabolite in CD will also be characterised.
A total of 180 eligible subjects will be randomized to receive Compound 1 or placebo in addition to their stable background treatment (eg, corticosteroids, aminosalicylates, or CD-related antibiotics). The study will consist of 2 parts, with total treatment duration of 20 weeks. Randomization in Part 1 will be stratified according the subject's previous anti-TNF exposure/response, CRP level at Screening, and oral corticosteroid use at visit Day −1.
After the first 10 weeks of treatment in Part 1, patients will be re-randomized for Part 2 as shown in the diagram below and will be stratified according to the subject's clinical response, previous anti-TNF exposure/response, and oral corticosteroid use at visit Day -1.
Histopathology data is collected from patients biopsy, and evaluated according to the procedure reported in D'haens et al., 1998.

[1] = Anti-TNF experienced non-responders
[2] = baseline corticosteroid use: with steroids
[3] = baseline corticosteroid use: without steroids

O=C(Nc1nc2cccc(-c3ccc(CN4CCS(=O)(=O)CC4)cc3)n2n1)C1CC1 [Compound 1, cyclopropanecarboxylic acid {5-[4-(1,1-dioxo-thiomorpholin-4-ylmethyl)-phenyl]-[1,2,4]triazolo[1,5-a]pyridin-2-yl}-amide]
Overall total score mean, % CFB at week 10 (Anti-TNF Naïve): −14% | Overall total score mean, CFB at week 10 (Anti-TNF Naïve): −3.9 | Overall total score mean, baseline (Anti-TNF Naïve): 20.3 | Overall total score mean, week 10 (Anti-TNF Naïve): 16.1 | Overall total score mean, % CFB at week 10 [1]: −7% | Overall total score mean, CFB at week 10 [1]: −3.2 | Overall total score mean, baseline [1]: 25.0 | Overall total score mean, week 10 [1]: 21.6 | Overall total score mean, % CFB at week 10 [2]: −15% | Overall total score mean, CFB at week 10 [2]: −4.3 | Overall total score mean, baseline [2]: 24.9 | Overall total score mean, week 10 [2]: 20.3 | Overall total score mean, % CFB at week 10 [3]: −5% | Overall total score mean, CFB at week 10 [3]: −2.7 | Overall total score mean, baseline [3]: 20.7 | Overall total score mean, week 10 [3]: 17.9 | Overall total score mean, % CFB at week 10 (overall): −10% | Overall total score mean, CFB at week 10 (overall): −3.5 | Overall total score mean, baseline (overall): 22.8 | Overall total score mean, week 10 (overall): 19.1 | Overall total score mean, % CFB at week 10 (screening CRP ≤ 10 ml/L): −20% | Overall total score mean, CFB at week 10 (screening CRP ≤ 10 ml/L): −4.8 | Overall total score mean, baseline (screening CRP ≤ 10 ml/L): 21.8 | Overall total score mean, week 10 (screening CRP ≤ 10 ml/L): 17.1 | Overall total score mean, % CFB at week 10 (screening CRP ≥ 10 mg/L): 4% | Overall total score mean, CFB at week 10 (screening CRP ≥ 10 mg/L): −1.8 | Overall total score mean, baseline (screening CRP ≥ 10 mg/L): 24.3 | Overall total score mean, week 10 (screening CRP ≥ 10 mg/L): 21.8
